Legend:
[1] = test system: HIV-1/LAI infected MT4 cells; format: cell-based; settings: in combination with the compound of formula (4); three molar ratios; mean of three experiments
Description: In general, combinations of two compounds can act synergistically, in an additive way or antagonistically. […] For the current invention, this was assessed in an experimental setting where the potency of different ratios of the two HIV-protease inhibitors is measured. Results were plotted in an isobologram graph according to the method described by Chou and Talalay (Adv. Enzyme Regul. 22: 27-55, 1984).
The results were analyzed according to the isobologram method described by Chou and Talalay (1984).
The results are presented as the mean of three separate experiments. The combination index (CI) for each combination was determined.

[2] = Safety and tolerability (adverse events, maculopapular rash) in clinical testing
[3] = Influence of ritonavir on the pharmacokinetics of a single dose of the compound of formula (4); settings: human, in vivo; for AUC: mean ± SD
[4] = Panel E (1200 mg/200 mg RTV o.d.)

CC(C)CN(C[C@@H](O)[C@H](Cc1ccccc1)NC(=O)O[C@H]1CCOC1)S(=O)(=O)c1ccc(N)cc1 [amprenavir]
combination index (CI) [1]: 0.65-0.77

CC(C)CN(C[C@@H](O)[C@H](Cc1ccccc1)NC(=O)O[C@H]1CO[C@H]2OCC[C@H]21)S(=O)(=O)c1ccc(N)cc1 [compound of formula (4), carbamic acid [(1S,2R)-3-[[(4-aminophenyl)sulfonyl](2-methylpropyl)amino]-2-hydroxy-1-(phenylmethyl)propyl]-(3R,3aS,6aR)hexahydrofuro[2,3-b]furan-3-yl ester]
subjects who developed maculopapular rash ([2]; 1200 mg t.i.d. alone): 4 out of 6
itching of the body and/or redness of the skin [2, 4]: two other volunteers
maculopapular rash [2, 4]: one volunteer with a clear maculopapular rash
maculopapular rash ([2]; volunteers in panels A to D (with ritonavir)): No maculopapular rash was observed
Tmax [3]: 60 min
Tmax ([3]; 800 mg): 48 min
AUC ([3]; 800 mg, Session I: single 800 mg dose alone): 10700 ± 3130 ng·h/mL
AUC ([3]; 800 mg, Session II: single 800 mg dose with RTV): 98700 ± 38500 ng·h/mL

CC(C)(C)NC(=O)[C@@H]1CN(Cc2cccnc2)CCN1C[C@@H](O)C[C@@H](Cc1ccccc1)C(=O)N[C@H]1c2ccccc2C[C@H]1O [indinavir]
combination index (CI) [1]: 0.87-0.92

Cc1cccc(C)c1OCC(=O)N[C@@H](Cc1ccccc1)[C@@H](O)C[C@H](Cc1ccccc1)NC(=O)[C@H](C(C)C)N1CCCNC1=O [lopinavir]
combination index (CI) [1]: 0.85-0.95

Cc1c(O)cccc1C(=O)N[C@@H](CSc1ccccc1)[C@H](O)CN1C[C@H]2CCCC[C@H]2C[C@H]1C(=O)NC(C)(C)C [nelfinavir]
combination index (CI) [1]: 0.61-0.80

CC(C)c1nc(CN(C)C(=O)N[C@H](C(=O)N[C@@H](Cc2ccccc2)C[C@H](O)[C@H](Cc2ccccc2)NC(=O)OCc2cncs2)C(C)C)cs1 [ritonavir]
combination index (CI) [1]: 0.66-0.81

CC(C)(C)NC(=O)[C@@H]1C[C@@H]2CCCC[C@@H]2CN1C[C@@H](O)[C@H](Cc1ccccc1)NC(=O)[C@H](CC(N)=O)NC(=O)c1ccc2ccccc2n1 [saquinavir]
combination index (CI) [1]: 0.94-1.0
